# Structures can show the parent of a compound that is named as a salt.
# Experiments:
# [1] = Solid form stability of forms of compound of formula (IV) (Temperature / Humidity Controlled XRPD, storage, suspension); format: physicochemical
# Procedure: The term"XRPD" denotes the analytical method of X-Ray Powder Diffraction. XRPD patterns were recorded at ambient conditions in transmission geometry with a STOE STADI P diffractometer (Cu K alpha radiation source, primary monochromator, position sensitive detector, angular range 3° to 42° 2Theta, approximately 60 minutes total measurement time). The repeatability of the angular values is in the range of 2Theta ±0.2°. The term "approximately" given in combination with an angular value denotes the repeatability which is in the range of 2Theta ±0.2°. The samples were prepared and analyzed without further processing (e.g. grinding or sieving) of the substance. The relative XRPD peak intensity is dependent upon many factors such as structure factor, temperature factor, crystallinity, polarization factor, multiplicity, and Lorentz factor. Relative intensities may vary considerably from one measurement to another due to preferred orientation effects. Humidity Controlled XRPD analyses were performed in reflection geometry with a Siemens D5000 Diffractometer (Cu radiation source, Ni K beta filter, Scintillation detector, angular range 3° to 42° 2Theta, approximately 180 minutes total measurement time per humidity level). The diffractometer is equipped with an MRI (Materials Research Instruments) humidity chamber. The humidity within the chamber is adjusted with an ANSYCO humidity controller (SYCOS H-HOT). For single crystal structure analysis a single crystal sample was mounted in a nylon loop on a goniometer and measured at ambient conditions. Alternatively, the crystal was cooled in a nitrogen stream during measurement. Data were collected on a GEMINI R Ultra diffractometer from Oxford Diffraction. Cu-radiation of 1.54 A wavelength was used for data collection. Data was processed with the Oxford Diffraction CRYSALIS software. The crystal structure was solved and refined with standard crystallographic software. In this case the program ShelXTL from Bruker AXS (Karlsruhe) was used. The abbreviation "FWHM" denotes the full width at half maximum, which is a width of a peak (e.g. appearing in a spectrum, particularly in an XRPD pattern) at its half height. The term "sharp Bragg diffraction peak" in connection with X-ray diffraction patterns denotes a peak which is observed if Bragg' s law of diffraction is fulfilled. Generally, the FWHM of a sharp Bragg diffraction peak is less than 0.5° 2-theta. The term "amorphous halo" in connection with X-ray diffraction patterns denotes an approximately bell- shaped diffraction maximum in the X-ray powder diffraction pattern of an amorphous material. The FWHM of an amorphous halo is on principle larger than the FWHM of the peak of crystalline material. The terms "FTIR" and "IR" denote the analytical method of infrared spectroscopy. The IR-spectra of the samples are recorded as film of a Nujol suspension consisting of approx. 5 mg of sample and approx. 5 mg of Nujol (mineral oil) between two sodium chloride plates (cross section 13 mm) in transmittance with a FTIR- spectrometer. The spectra were recorded in spectral range between 4000 cm"1 and 600 cm"1, resolution 2 cm"1, and 300 coadded scans on a Magna 860 (thermo/Nicolet) equipped with a DTGS detector. The term "Raman" denotes the analytical method of Raman spectroscopy. For recording Raman spectra, the samples were spread on a glass slide. Raman spectra were recorded in the range of 150-3800 cm"1 with an ARAMIS (HoribaJobinYvon) Raman microscope equipped with a Peltier cooled CCD detector, at excitation of 633 nm, a 1200 1/mm grating, a x50 objective and with 3 exposures of 3s, or 7s for weak Raman scatterers. The term "DSC" denotes the analytical method of Differential Scanning Calorimetry. DSC thermograms were recorded using a Mettler-Toledo™ differential scanning calorimeter DSC820, DSC821 or DSC1 with a FRS05 sensor. […]
# [2] = VT-XRPD / VH-XRPD / drying stability of HCl salt forms of Formula V; conditions: ca. 16 hours; XRPD
# Procedure: The humidity was controlled by mixing streams of dry and wet nitrogen, with a total flow rate of 200 mL.min-1 The relative humidity was measured by a calibrated Rotronic probe (dynamic range of 1.0 - 100%RH), located near the sample. The weight change (mass relaxation) of the sample as a function of %RH was constantly monitored by the microbalance (accuracy ±0.005 mg). Approximately 5 - 20 mg of sample was placed in a tared mesh stainless steel basket under ambient conditions. […] A moisture sorption isotherm was performed as outlined below (2 scans giving 1 complete cycle). […] Data analysis was undertaken in Microsoft Excel using DVS Analysis Suite v6.0.0.7. […] XRPD: X-Ray Powder Diffraction patterns were collected either on a Bruker AXS C2 GADDS diffractometer or a Bruker AXS D8 diffractometer. […] The beam divergence, i.e. the effective size of the X-ray beam on the sample, was approximately 4 mm. […] In a typical experiment, the sampleis exposed to the X-ray beam for 120 seconds. The software used for data collectionwas GADDS for WNT 4.1.16 and the data were analyzed and presented using Diffrac PlusEVA vl 1.0.0.2 or vl3.0.0.2. Ambient conditions: Samples run under ambient conditions were prepared as flat plate specimens using powder as received without grinding. Approximately 1 - 2 mg of the sample was lightly pressed on aglass slide to obtain a flat surface. Non-ambient conditions: Samples run under non-ambient conditions were mounted on a silicon wafer with heat-conducting compound. The sample was then heated to the appropriate temperatureat 10.C.min_1and subsequently held isothermally for 1 minute before data collection was initiated. On a Bruker D8 diffractometer, the following parameters were used: Cu Ka radiation (40 kV, 40 mA), θ - 20 goniometer, and divergence of V4 and receiving slits, a Ge monochromator and a Lynxeye detector. […] The software used for data collection was Diffrac Plus XRD Commander v2.5.0 and the data were analyzed and presented using Diffrac Plus EVA vl 1.0.0.2 or vl3.0.0.2. Samples were run under ambient conditions as flat plate specimens using powder as received. The sample was gently packed into a cavity cut into polished, zero-background (510) silicon wafer. The sample was rotated in its own plane during analysis. The details of the data collection are: · Angular range: 2 to 42°2Θ, · Step size: 0.05°2Θ, · Collection time: 0.5 s/step.
structure (smiles),measurement,setting,value
"Cc1onc(-c2ccc(F)cc2)c1COc1ccc(C(=O)N2CCS(=O)(=O)CC2)cn1 [Form A ({drug4a}), (1,1-dioxo-1lambda6-thiomorpholin-4-yl)-{6-[3-(4-fluoro-phenyl)-5-methyl-isoxazol-4-ylmethoxy]-pyridin-3-yl]-methanone]",thermodynamic stability of the solid form,[1],metastable polymorph
same,solid form changes at elevated temperature,[1]; Temperature Controlled XRPD,do not show solid form changes
"Cc1onc(-c2ccc(F)cc2)c1COc1ccc(C(=O)N2CCS(=O)(=O)CC2)cn1 [Form E ({drug4e}), (1,1-dioxo-1lambda6-thiomorpholin-4-yl)-{6-[3-(4-fluoro-phenyl)-5-methyl-isoxazol-4-ylmethoxy]-pyridin-3-yl]-methanone]",humidity at which rapid reconversion into Form B is observed,[1],> 5 rH
same,thermodynamic stability of the solid form,[1],only limited stability at ambient conditions
"Nc1nc2cc(-c3ccc4ncc(C(=O)N5CCOCC5)n4c3)ccc2o1 [HCl Pattern 1, (6-(2-aminobenzo[d]oxazol-5-yl)imidazo[1,2-a]pyridin-3-yl)(morpholino)methanone]",stability of the salt form on drying under vacuum at room temperature,[2],partially reverted to the free base
"Nc1nc2cc(-c3ccc4ncc(C(=O)N5CCOCC5)n4c3)ccc2o1 [HCl Pattern 3, (6-(2-aminobenzo[d]oxazol-5-yl)imidazo[1,2-a]pyridin-3-yl)(morpholino)methanone]",stability of the salt form on drying under vacuum at room temperature,[2],unstable salt form

# Reference: patent EP2792360A1, “(1aR,12bS)-8-cyclohexyl-11-fluoro-N-((1-methylcyclopropyl)sulfonyl)-1a-((3-methyl-3,8-diazabicyclo[3.2.1]oct-8-yl)carbonyl)-1,1a,2,2b-tetrahydrocyclopropa[d]indolo[2,1-a][2]benzazepine-5-carboxamide for use in treating HCV” (IP Gesellschaft für Management mbH, priority 2013, dated 2014)
